Key:
HCC1937 cells = assay: Cellular PARylation assay; type: cell-based; conditions: Homo sapiens; HCC1937 cells, compound 30 min then 1 mM H2O2 10 min; read-out: cellular PARylation EC50
Procedure: Cellular PARylation Assay
HCC1937 cells were planted into 96 well plates at 4×10^4 cells/well and incubated at 37° C. in an incubator overnight. After being treated with a test compound for 30 min, cells were then treated with 1 mM H2O2 for 10 min. The cells were washed with 200 ul pre-chilled PBS twice and fixed with 100 ul pre-chilled methanol/acetone (7:3) on ice for 30 min. After being air-dried, the plates were blocked using PBS-Tween blocking solution (0.05%) with dissolved 5% nonfat dry milk for 30 min at room temperature. The cells were incubated with anti-PAR antibody 10H (1:100) at room temperature for 1 hour followed by washing with PBS-Tween20 for 3 times; and then added into a blocking solution including goat anti-mouse fluorescein isothiocyanate (FITC)-coupled secondary antibody and 1 μg/mL DAPI to incubate away from light at room temperature for 1 hour. After being washed with PBS-Tween20 for 3 times, the plate was analyzed with a fluorescence microplate counter (Flexstation III, Molecular Device).

PARP-1 = target: T1, PARP-1 (Homo sapiens, UniProt P09874); assay: PARP enzymatic assay (HT Universal Colorimetric PARP1 Assay Kit); type: biochemical; conditions: read-out: PARP-1 enzymatic inhibition IC50
T1 construct: purchased
T1 sequence (P09874 whole entry): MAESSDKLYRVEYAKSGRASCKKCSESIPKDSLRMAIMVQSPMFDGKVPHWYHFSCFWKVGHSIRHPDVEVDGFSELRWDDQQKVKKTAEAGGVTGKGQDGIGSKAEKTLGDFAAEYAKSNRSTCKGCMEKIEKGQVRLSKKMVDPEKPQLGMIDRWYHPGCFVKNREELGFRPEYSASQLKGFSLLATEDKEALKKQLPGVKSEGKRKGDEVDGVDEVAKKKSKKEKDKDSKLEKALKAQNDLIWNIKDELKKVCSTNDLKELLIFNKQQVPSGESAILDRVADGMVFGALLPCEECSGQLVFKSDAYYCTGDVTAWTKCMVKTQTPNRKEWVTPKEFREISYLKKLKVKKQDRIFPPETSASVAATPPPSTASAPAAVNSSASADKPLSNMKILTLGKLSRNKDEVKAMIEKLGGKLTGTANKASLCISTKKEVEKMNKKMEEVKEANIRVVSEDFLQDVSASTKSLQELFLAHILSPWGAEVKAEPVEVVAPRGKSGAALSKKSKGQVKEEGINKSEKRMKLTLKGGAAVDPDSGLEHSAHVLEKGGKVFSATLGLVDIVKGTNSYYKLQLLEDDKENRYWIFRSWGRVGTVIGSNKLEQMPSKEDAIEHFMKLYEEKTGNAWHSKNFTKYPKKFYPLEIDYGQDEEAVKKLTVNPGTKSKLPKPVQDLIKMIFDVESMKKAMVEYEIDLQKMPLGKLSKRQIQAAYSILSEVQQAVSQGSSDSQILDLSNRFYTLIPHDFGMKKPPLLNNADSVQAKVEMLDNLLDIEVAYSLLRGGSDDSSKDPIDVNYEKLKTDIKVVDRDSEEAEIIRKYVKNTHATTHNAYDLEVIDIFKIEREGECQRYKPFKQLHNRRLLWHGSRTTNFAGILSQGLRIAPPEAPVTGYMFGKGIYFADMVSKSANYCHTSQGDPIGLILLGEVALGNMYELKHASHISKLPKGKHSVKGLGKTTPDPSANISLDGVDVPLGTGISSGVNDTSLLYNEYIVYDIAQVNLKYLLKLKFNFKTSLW
Procedure: PARP Enzymatic Assay (Following the Manual of HT Universal Colorimetric PARP1 Assay Kit).
Histone proteins were coated on a 96-well plate and incubated overnight at 4° C. After be washed 3 times with 200 ul PBST solution, the plate was blocked with a blocking solution and incubated for 30 min at room temperature, and then washed with PBST solution 3 times. A compound to be tested was treated and added to the plate. Thereafter, 20 μl of diluted PARP1 (1 nM) or 20 μl of PARP2 (3 nM) solution was added into the reaction system and incubated for 1 or 2 hours. 50 ul of streptavidin-HRP mixture (1:50) was added into the plate and incubated for 30 min at room temperature. The plate was then washed with three times with PBST buffer. 100 μl of (HRP) (Chemiluminescent substrate A and substrate B (1:1)) was added into the plate, and the plate was immediately read on a microplate reader (Envision, PerkinElmer).

| Compound | EC50 (HCC1937 cells) [nM] | IC50 (PARP-1) [nM] |
| --- | --- | --- |
| NC(=O)c1cc(F)cc2[nH]c3c(C45CC4CN(C4CCC4)C5)cnn3c12 (stereo not drawn) [Example 30, 3-(3-cyclobutyl-3-azabicyclo[3.1.0]hexan-1-yl)-6-fluoro-4H-benzo[4,5]imidazo[1,2-b]pyrazole-8-carboxamide] | 1 to 100 | 1 to 100 |
| NC(=O)c1cc(F)cc2[nH]c3c(C4CCN(C5CC5)CC4)cnn3c12 [Example 4, 3-(1-cyclopropylpiperidin-4-yl)-6-fluoro-4H-benzo[4,5]imidazo[1,2-b]pyrazole-8-carboxamide] | 1 to 100 | 1 to 100 |
| Cc1nn2c([nH]c3cc(F)cc(C(N)=O)c32)c1C1(C)CCN(CC(C)(C)O)CC1 [Example 116, 6-fluoro-3-(1-(2-hydroxy-2-methylpropyl)-4-methylpiperidin-4-yl)-2-methyl-4H-benzo[4,5]imidazo[1,2-b]pyrazole-8-carboxamide] | 1 to 100 | 1 to 100 |
| COCCN1CCC(c2cnn3c2[nH]c2cc(F)cc(C(N)=O)c23)CC1 [Example 15, 6-fluoro-3-(1-(2-methoxyethyl)piperidin-4-yl)-4H-benzo[4,5]imidazo[1,2-b]pyrazole-8-carboxamide] | 1 to 100 | 1 to 100 |
| CN(C)CCN1CCC(c2cnn3c2[nH]c2cc(F)cc(C(N)=O)c23)CC1 [Example 14, 3-(1-(2-(dimethylamino)ethyl)piperidin-4-yl)-6-fluoro-4H-benzo[4,5]imidazo[1,2-b]pyrazole-8-carboxamide] | 1 to 100 | 1 to 100 |
| CNCc1ccc(-c2cnn3c2[nH]c2cc(F)cc(C(N)=O)c23)cc1 [Example 43, 6-fluoro-3-(4-((methylamino)methyl)phenyl)-4H-benzo[4,5]imidazo[1,2-b]pyrazole-8-carboxamide] | 101 to 1000 | 1 to 100 |
| CC1(c2cnn3c2[nH]c2cc(F)cc(C(N)=O)c23)CCN(S(C)(=O)=O)CC1 [Example 75, 6-fluoro-3-(4-methyl-1-(methylsulfonyl)piperidin-4-yl)-4H-benzo[4,5]imidazo[1,2-b]pyrazole-8-carboxamide] | 101 to 1000 | 1 to 100 |
| CCN1CCCC(c2cnn3c2[nH]c2cc(F)cc(C(N)=O)c23)CC1 (stereo not drawn) [Example 18, 3-(1-ethylazepan-4-yl)-6-fluoro-4H-benzo[4,5]imidazo[1,2-b]pyrazole-8-carboxamide] | 1 to 100 | 1 to 100 |
| CC1(c2cnn3c2[nH]c2cc(F)cc(C(N)=O)c23)CCN(CC2(N)CC2)CC1 [Example 67, 3-(1-((1-aminocyclopropyl)methyl)-4-methylpiperidin-4-yl)-6-fluoro-4H-benzo[4,5]imidazo[1,2-b]pyrazole-8-carboxamide] | 1 to 100 | 1 to 100 |
| CC(C)N1CCC(c2cnn3c2[nH]c2cc(F)cc(C(N)=O)c23)C1 (stereo not drawn) [Example 22, 6-fluoro-3-(1-isopropylpyrrolidin-3-yl)-4H-benzo[4,5]imidazo[1,2-b]pyrazole-8-carboxamide] | 1 to 100 | 1 to 100 |
| CC1(c2cnn3c2[nH]c2cc(F)cc(C(N)=O)c23)CCN(CC2(O)CC2)CC1 [Example 70, 6-fluoro-3-(1-((1-hydroxycyclopropyl)methyl)-4-methylpiperidin-4-yl)-4H-benzo[4,5]imidazo[1,2-b]pyrazole-8-carboxamide] | 1 to 100 | 1 to 100 |
| CCN1CCC(N2CCC(C)(c3cnn4c3[nH]c3cc(F)cc(C(N)=O)c34)CC2)CC1 [Example 86, 3-(1′-ethyl-4-methyl-[1,4′-bipiperidin]-4-yl)-6-fluoro-4H-benzo[4,5]imidazo[1,2-b]pyrazole-8-carboxamide] | 1 to 100 | 1 to 100 |
| CC1(c2cnn3c2[nH]c2cc(F)cc(C(N)=O)c23)CCN(Cc2ccc(=O)[nH]n2)CC1 [Example 87, 6-fluoro-3-(4-methyl-1-((6-oxo-1,6-dihydropyridazin-3-yl)methyl)piperidin-4-yl)-4H-benzo[4,5]imidazo[1,2-b]pyrazole-8-carboxamide] | 101 to 1000 | 1 to 100 |
| CN(C)C1CCC(c2cnn3c2[nH]c2cc(F)cc(C(N)=O)c23)CC1 (stereo not drawn) [Example 48, 3-(4-(dimethylamino)cyclohexyl)-6-fluoro-4H-benzo[4,5]imidazo[1,2-b]pyrazole-8-carboxamide] | 1 to 100 | 1 to 100 |
| CN1CCC(C)(c2cnn3c2[nH]c2cc(F)cc(C(N)=O)c23)C1 (stereo not drawn) [Example 91, 3-(1,3-dimethylpyrrolidin-3-yl)-6-fluoro-4H-benzo[4,5]imidazo[1,2-b]pyrazole-8-carboxamide] | 1 to 100 | 1 to 100 |
| CCN1CCC(c2cnn3c2[nH]c2cc(F)cc(C(N)=O)c23)C1 (stereo not drawn) [Example 21, 3-(1-ethylpyrrolidin-3-yl)-6-fluoro-4H-benzo[4,5]imidazo[1,2-b]pyrazole-8-carboxamide] | 1 to 100 | 1 to 100 |
| CCN1CCC(CC)(c2cnn3c2[nH]c2cc(F)cc(C(N)=O)c23)CC1 [Example 107, 3-(1,4-diethylpiperidin-4-yl)-6-fluoro-4H-benzo[4,5]imidazo[1,2-b]pyrazole-8-carboxamide] | 1 to 100 | 1 to 100 |
| Cc1nn2c([nH]c3cc(F)cc(C(N)=O)c32)c1C1(C)CCN(CC2CC2)CC1 [Example 111, 3-(1-(cyclopropylmethyl)-4-methylpiperidin-4-yl)-6-fluoro-2-methyl-4H-benzo[4,5]imidazo[1,2-b]pyrazole-8-carboxamide] | 1 to 100 | 1 to 100 |
| CC1(c2cnn3c2[nH]c2cc(F)cc(C(N)=O)c23)CCN(CC2(N)CC2)C1 (stereo not drawn) [Example 100, 3-(1-((1-aminocyclopropyl)methyl)-3-methylpyrrolidin-3-yl)-6-fluoro-4H-benzo[4,5]imidazo[1,2-b]pyrazole-8-carboxamide] | 1 to 100 | 1 to 100 |
| CNCc1ccc(-c2cnn3c2[nH]c2cc(F)cc(C(N)=O)c23)c(F)c1 [Example 42, 6-fluoro-3-(2-fluoro-4-((methylamino)methyl)phenyl)-4H-benzo[4,5]imidazo[1,2-b]pyrazole-8-carboxamide] | 101 to 1000 | 1 to 100 |
| CC1(CN2CCC(C)(c3cnn4c3[nH]c3cc(F)cc(C(N)=O)c34)CC2)COC1 [Example 71] | 1 to 100 | 1 to 100 |
| CCN1CC2C(C1)C2c1cnn2c1[nH]c1cc(F)cc(C(N)=O)c12 (stereo not drawn) [Example 34, 3-(3-ethyl-3-azabicyclo[3.1.0]hexan-6-yl)-6-fluoro-4H-benzo[4,5]imidazo[1,2-b]pyrazole-8-carboxamide] | 101 to 1000 | 1 to 100 |
| CC(C)N1CCC(C)(c2cnn3c2[nH]c2cc(F)cc(C(N)=O)c23)C1 (stereo not drawn) [Example 92, 6-fluoro-3-(1-isopropyl-3-methylpyrrolidin-3-yl)-4H-benzo[4,5]imidazo[1,2-b]pyrazole-8-carboxamide] | 1 to 100 | 1 to 100 |
| CC(C)(F)CN1CCC(c2cnn3c2[nH]c2cc(F)cc(C(N)=O)c23)CC1 [Example 7, 6-fluoro-3-(1-(2-fluoro-2-methylpropyl)piperidin-4-yl)-4H-benzo[4,5]imidazo[1,2-b]pyrazole-8-carboxamide] | 1 to 100 | 1 to 100 |
| CC(C)N1CCC(c2cnn3c2[nH]c2cc(F)cc(C(N)=O)c23)CC1 [Example 10, 6-fluoro-3-(1-isopropylpiperidin-4-yl)-4H-benzo[4,5]imidazo[1,2-b]pyrazole-8-carboxamide] | 1 to 100 | 1 to 100 |
| CC1(c2cnn3c2[nH]c2cc(F)cc(C(N)=O)c23)CCN(C2COC2)C1 (stereo not drawn) [Example 94, 6-fluoro-3-(3-methyl-1-(oxetan-3-yl)pyrrolidin-3-yl)-4H-benzo[4,5]imidazo[1,2-b]pyrazole-8-carboxamide] | 101 to 1000 | 1 to 100 |
| Cc1nn2c([nH]c3cc(F)cc(C(N)=O)c32)c1C1(C)CCN(C(C)C)CC1 [Example 114, 6-fluoro-3-(1-isopropyl-4-methylpiperidin-4-yl)-2-methyl-4H-benzo[4,5]imidazo[1,2-b]pyrazole-8-carboxamide] | 1 to 100 | 1 to 100 |
| CC1(c2cnn3c2[nH]c2cc(F)cc(C(N)=O)c23)CCN(CCS(C)(=O)=O)CC1 [Example 65, 6-fluoro-3-(4-methyl-1-(2-(methylsulfonyl)ethyl)piperidin-4-yl)-4H-benzo[4,5]imidazo[1,2-b]pyrazole-8-carboxamide] | 1 to 100 | 1 to 100 |
| NC(=O)c1cc(F)cc2[nH]c3c(-c4ccncc4)cnn3c12 [Example 45, 6-fluoro-3-(pyridin-4-yl)-4H-benzo[4,5]imidazo[1,2-b]pyrazole-8-carboxamide] | > 1000 | 101 to 1000 |
| CC(C)N1CC2CC2(c2cnn3c2[nH]c2cc(F)cc(C(N)=O)c23)C1 (stereo not drawn) [Example 32, 6-fluoro-3-(3-isopropyl-3-azabicyclo[3.1.0]hexan-1-yl)-4H-benzo[4,5]imidazo[1,2-b]pyrazole-8-carboxamide] | 1 to 100 | 1 to 100 |
